Target: Cif (CFTR inhibitory factor) (Pseudomonas aeruginosa, UniProt A0A0H2ZD27)
Assay: epoxide hydrolase inhibition assay
Type: biochemical

Cif (CFTR inhibitory factor), sequence (A0A0H2ZD27 25-319 limits assumed): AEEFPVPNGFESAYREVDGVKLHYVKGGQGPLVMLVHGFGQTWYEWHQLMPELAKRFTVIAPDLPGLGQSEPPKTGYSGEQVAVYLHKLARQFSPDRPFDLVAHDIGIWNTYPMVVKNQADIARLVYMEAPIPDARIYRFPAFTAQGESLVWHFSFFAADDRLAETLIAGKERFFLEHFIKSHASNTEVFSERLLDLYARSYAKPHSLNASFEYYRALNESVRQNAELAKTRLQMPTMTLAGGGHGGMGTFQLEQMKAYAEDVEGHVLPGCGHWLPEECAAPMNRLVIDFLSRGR

With N[C@@H](Cc1cc(I)c(Oc2cc(I)c(O)c(I)c2)c(I)c1)C(=O)O [compound 9, 9] the IC50 was greater than 100 µM.

— publication PMC4556431 (Angewandte Chemie (International ed. in English), 2015)
